Test results published in patent US11981674B1, “7-isopropyl 1-ethyl/methyl 3-(substituted benzoyl)-2-substituted indolizine-1,7-dicarboxylates as larvicidal agents” (KING FAISAL UNIVERSITY, priority 2023, dated 2024).
Read-outs that look alike come from different tables or passages of the source.

System: Anopheles arabiensis
Experiment: Larvicidal screening (WHO protocol), 3rd instar larvae
Assay type: in vivo
Settings: for mortality at 4 µg/mL: Anopheles arabiensis
Method: Anopheles arabiensis was used in the study according to the protocol described by WHO (1975) guidelines in an insectary simulating the temperature (27.5° C.), humidity (70%), and lighting (12/12) of a malaria-endemic environment. One mL of test compound (1 mg/mL) was added to 1 mL of acetone and followed by […] of distilled water to obtain a final concentration of 4 μg/mL. Thirty individuals of 3rd instar larvae were introduced into a container. Negative control was set up using the solvent (acetone) and distilled water, and a positive control included Temephos, which is an active emulsified organophosphate larvicidal used by malaria control programs. Larval mortality was examined for each container separately for 24 h and fed specially made cat food that contained less oil/fat content. The percentage of mortality was determined relative to the initial number of larvae exposed.
Differences in larval mortality between treatments were assessed with generalized linear models using a quasi-Poisson link function. Anopheles arabiensis mortality was the dependent variable, while fixed effects were test compounds and observation period (24 and 48 h). A p-value <0.05 was considered statistically significant. Throughout the text, the results are presented as the adjusted mean±the standard error.

[1] = 24 h, read-out: larval mortality rate in 24 hours
[2] = 48 h, read-out: larval mortality rate in 48 hours

Molecule	mortality at 4 µg/mL (24 h, read-out: Mortality 24 h)	mortality at 4 µg/mL [1]	mortality at 4 µg/mL (48 h, read-out: Mortality 48 h)	mortality at 4 µg/mL [2]	Mortality 24 h (Anopheles arabiensis larvae exposed 24 h, 4 μg/mL, adjusted mean ± standard error)	Mortality 48 h (Anopheles arabiensis larvae exposed 48 h, 4 μg/mL, adjusted mean ± standard error)	larval mortality rate in 24 hours (in 24 hours)	larval mortality rate in 48 hours (in 48 hours)
COC(=O)c1c(C(=O)OC)c2cc(C(=O)OC(C)C)ccn2c1C(=O)c1ccc(C#N)cc1 [Compound 3i, 7-isopropyl 1,2-dimethyl 3-(4-cyanobenzoyl)indolizine-1,2,7-tricarboxylate]	62.4 ± 1.8%	62.4 ± 1.8%	63.8 ± 1.9%	63.8 ± 1.9%				
1-Ethyl 7-isopropyl 3-(3,5-bis(trifluoromethyl)benzoyl)indolizine-1,7-dicarboxylate [Compound 3m]					93.45 ± 1.29%	96.12 ± 1.90%	93.45±1.29	96.12±1.90
COC(=O)c1c(C(=O)OC)c2cc(C(=O)OC(C)C)ccn2c1C(=O)c1ccccc1 [Compound 3a, 7-Isopropyl 1,2-dimethyl 3-benzoylindolizine-1,2,7-tricarboxylate]	39.2 ± 1.64%	39.2 ± 1.64%	45.5 ± 2.65%	45.5 ± 2.65%				
COC(=O)c1c(C(=O)OC)c2cc(C(=O)OC(C)C)ccn2c1C(=O)c1cc(C(F)(F)F)cc(C(F)(F)F)c1 [Compound 3l, 7-Isopropyl 1,2-dimethyl 3-(3,5-bis(trifluoromethyl)benzoyl)indolizine-1,2,7-tricarboxylate]	97.2 ± 2.3%	97.2 ± 2.3%	99.5 ± 1.49%	99.5 ± 1.49%				
COC(=O)c1c(C(=O)OC)c2cc(C(=O)OC(C)C)ccn2c1C(=O)c1ccc(F)cc1 [Compound 3c, 7-Isopropyl 1,2-dimethyl 3-(4-fluorobenzoyl)indolizine-1,2,7-tricarboxylate]	79.1 ± 1.65%	79.1 ± 1.65%	82.3 ± 2.71%	82.3 ± 2.71%				
CCOC(=O)c1cc(C(=O)c2ccc(C#N)cc2)n2ccc(C(=O)OC(C)C)cc12 [Compound 3j, 1-Ethyl 7-isopropyl 3-(4-cyanobenzoyl)indolizine-1,7-dicarboxylate]	61.6 ± 1.23%	61.6 ± 1.23%	66.1 ± 2.62%	66.1 ± 2.62%				
COC(=O)c1c(C(=O)OC)c2cc(C(=O)OC(C)C)ccn2c1C(=O)c1ccc(Cl)cc1 [Compound 3e, 7-Isopropyl 1,2-dimethyl 3-(4-chlorobenzoyl)indolizine-1,2,7-tricarboxylate]	67.9 ± 2.91%	67.9 ± 2.91%	70.9 ± 1.67%	70.9 ± 1.67%				
COC(=O)c1c(C(=O)OC)c2cc(C(=O)OC(C)C)ccn2c1C(=O)c1ccc(C)cc1 [Compound 3k, 7-Isopropyl 1,2-dimethyl 3-(4-methylbenzoyl)indolizine-1,2,7-tricarboxylate]	57.5 ± 1.32%	57.5 ± 1.32%	60 ± 1.87%	60 ± 1.87%				
COP(=S)(OC)Oc1ccc(Sc2ccc(OP(=S)(OC)OC)cc2)cc1 [Temephos, reference compound]	98.3%		100%					
CCOC(=O)c1cc(C(=O)c2ccc(F)cc2)n2ccc(C(=O)OC(C)C)cc12 [Compound 3d, 1-Ethyl 7-isopropyl 3-(4-fluorobenzoyl)indolizine-1,7-dicarboxylate]	87.3 ± 1.64%	87.3 ± 1.64%	91.2 ± 3.18%	91.2 ± 3.18%				
CCOC(=O)c1cc(C(=O)c2ccc(Br)cc2)n2ccc(C(=O)OC(C)C)cc12 [Compound 3h, 1-Ethyl 7-isopropyl 3-(4-bromobenzoyl)indolizine-1,7-dicarboxylate]	82.3 ± 1.23%	82.3 ± 1.23%	86.7 ± 1.39%	86.7 ± 1.39%				
CCOC(=O)c1cc(C(=O)c2ccccc2)n2ccc(C(=O)OC(C)C)cc12 [Compound 3b, 1-Ethyl 7-isopropyl 3-benzoylindolizine-1,7-dicarboxylate]	32.6 ± 2.44%	32.6 ± 2.44%	36.8 ± 1.79%	36.8 ± 1.79%				
CCOC(=O)c1cc(C(=O)c2ccc(Cl)cc2)n2ccc(C(=O)OC(C)C)cc12 [Compound 3f, 1-Ethyl 7-isopropyl 3-(4-chlorobenzoyl)indolizine-1,7-dicarboxylate]	66 ± 2.94%	66 ± 2.94%	69.2 ± 2.47%	69.2 ± 2.47%				
COC(=O)c1c(C(=O)OC)c2cc(C(=O)OC(C)C)ccn2c1C(=O)c1ccc(Br)cc1 [Compound 3g, 7-Isopropyl 1,2-dimethyl 3-(4-bromobenzoyl)indolizine-1,2,7-tricarboxylate]	89.4 ± 2.42%	89.4 ± 2.42%	91.1 ± 2.21%	91.1 ± 2.21%				
